# Test results published in patent US10098900B2, “Pharmaceutical compositions and their use for treatment of cancer and autoimmune diseases” (ZHEJIANG DTRM BIOPHARMA CO. LTD., priority 2015, dated 2018).
# Marks after values point to notes of the source that are not given here.
# How the values were obtained:
# [1] = 28-day toxicity/toxicokinetic (TK) study in dogs; format: in vivo, dog
# [2] = test system: resistant WSU-DLCL2 cell line; assay: Inhibition assay of tumor cell activity (cell viability), WSU-DLCL2; format: cell-based; settings: Homo sapiens, WSUDLCL2, individual compound, read-out: Inh % on resistant WSU-DLCL2 cell line (AVG)
# Description: (§1) Inhibition Assay of Tumor Cell Activity:
# (§2) Tumor cells (TMD-8, DoHH2 and WSU-DLCL2) were transferred and attached to 96-well plates. After one night, blank buffer and selected concentrations (0.01 nM-100 μM) of the test compound solution were added. After 48 hours incubation, CellTiter-Go was added to lyse the cells. Recording luminescent signal and calculate the percent inhibition of cell viability
# [3] = test system: DoHH-2 lymphoma xenograft; assay: Inhibition of tumor growth in vivo, DoHH-2 lymphoma xenograft SCID mouse model; settings: BID, 21 days
# Description: (§3) Inhibition Study of Tumor Growth In Vivo:
# (§4) SCID mice or nude mice (weighing about 18 g at the beginning of the experiment) were randomly divided into groups by the software in order to achieve close average weights between groups and control the bias within the allowable range. The mice were injected BTK cell lines (TMD-8, WSU-DLCL2 and DoHH-2) for tumor formation. Inhibitors were administered orally once or twice a day, a total of 14 days, 21 days or 28 days. Body weights and tumor volume were recorded.
# (§5) Xenograft Tumor Models Inoculated with TMD-8, or DoHH2, or WSU-DLCL2 Tumor Cell Lines:
# (§6) TMD-8 is a sensitive human diffuse large B-cell lymphoma cell line, and DoHH2 is a more difficult to treat human follicular lymphoma cell line, while WSU-DLCL2 is a multi-drug resistant (MDR) human non-Hodgkin's lymphoma cell line. Drug combination therapies provide better efficacies in all three tumor models than single targeted agent alone.
# (§7) The TMD-8, DoHH2, WSU-DLCL2 tumor cells were maintained in vitro as a suspension culture in RPMI-1640 medium supplemented with 10% heat inactivated fetal calf serum at 37° C. in an atmosphere of 5% CO2 in air. The tumor cells were routinely subcultured twice weekly. The cells growing in an exponential growth phase were harvested and counted for tumor inoculation. Each mouse was inoculated subcutaneously at the right flank with the tumor cells (10×10^6) in 0.2 ml of PBS with Matrigel (1:1) for tumor development. The treatments were started after the average tumor size reached approximately 100-200 mm^3. Each group consisted of 6-10 tumor-bearing mice. The testing article (vehicle, compound or combination) was orally administrated to the mice according to the predetermined doses for 14-days or 21-days. Animal body weight and tumor volume were measured every 2- or 3-days throughout the treatment.
# [4] = test system: collagen induced arthritis; assay: Collagen-induced arthritis (CIA) model in male DBA/1 mice (clinical score, histopathology); format: in vivo, mouse; parameters: Clinical Score (Mean) / Pathological score (Mean ± SEM), Inflammatory cell infiltration / Pathological score (Mean ± SEM), Pannus growth / Pathological score (Mean ± SEM), Cartilage injury / Pathological score (Mean ± SEM), Bone resorption / Pathological score (Mean ± SEM), Total: scale not given here
# Description: Collagen-Induced Arthritis (CIA) Model: The combination of Compounds 3 and 12 was evaluated in collagen induced arthritis (CIA) mouse model in Male DBA/1 mice. The animals were divided into 8 groups, including a normal, a vehicle, […] treatment groups: […] On the same day, immunized mice were randomly divided into 7 groups: […] The treatments were given orally for 2 consecutive weeks. Body weight and clinical score were monitored through the study (recorded three times a week started after second immunization). At the end of the study, animals were euthanized and both hind paws were collected for histopathology analysis.
# TMD-8 cell line = assay: Inhibition assay of tumor cell activity (cell viability), TMD-8; format: cell-based, human; settings: individual compound; for Inh % on TMD-8 cell line (AVG): 48 h
# Description: as §1, §2
# DoHH-2 cell line = assay: Inhibition assay of tumor cell activity (cell viability), DoHH-2; format: cell-based; settings: Homo sapiens, individual compound, read-out: Inh % on DoHH-2 cell line (AVG)
# Description: as §1, §2
# TMD-8 lymphoma xenograft = assay: Inhibition of tumor growth in vivo, TMD-8 lymphoma xenograft SCID mouse model; settings: TMD-8, Oral, BID
# Description: as §3, §4, §5, §6, §7
# WSU-DLCL2 xenograft = assay: Inhibition of tumor growth in vivo, resistant WSU-DLCL2 SCID mouse model; settings: for Antitumor effect (%): WSU-DLCL2, Oral, BID
# Description: as §3
# SCID mice or nude mice (weighing about 18 g at the beginning of the experiment) were randomly divided into groups by the software in order to achieve close average weights between groups and control the bias within the allowable range. The mice were injected BTK cell lines (TMD-8, WSU-DLCL2 and DoHH-2) for tumor formation. […] Body weights and tumor volume were recorded.
# as §5
# TMD-8 is a sensitive human diffuse large B-cell lymphoma cell line, and DoHH2 is a more difficult to treat human follicular lymphoma cell line, while WSU-DLCL2 is a multi-drug resistant (MDR) human non-Hodgkin's lymphoma cell line.
# as §7, with “The testing article (vehicle, compound or combination) was orally administrated to the mice according to the predetermined doses for 14-days or 21-days.” left out
# [5] = CIA study, Left hind paw, 3 alone, 1.5 mg/kg QD
# [6] = CIA study, Right hind paw, 3 alone, 1.5 mg/kg QD
smiles,measurement,setting,value
"C=CC(=O)N1CC[C@@H](n2nc(-c3ccc(Oc4c(F)c(F)cc(F)c4F)cc3F)c3c(N)ncnc32)C1 [Compound 3, 1-((R)-3-(4-amino-3-(2-fluoro-4-(2,3,5,6-tetrafluorophenoxy)phenyl)-1H-pyrazolo[3,4-d]pyrimidin-1-yl)pyrrolidin-1-yl)prop-2-en-1-one]",AUC compared with ibrutinib,[1],significantly higher
same,Cmax,"[1]; 15 mg/kg/day, Day 1, Female",685 ± 212 ng/mL
same,inhibition at 0.01 µM,[2]; 0.01 uM,-10.1%
same,inhibition at 0.1 µM,[2]; 0.1 uM,-1.36%
same,inhibition at 1 µM,[2]; 1 uM,41%
same,Antitumor effect (%),"[3]; FIG. 6, Oral, 5 mg/kg",28.8%
same,Antitumor effect (%),"[3]; FIG. 6, Oral, 10 mg/kg",20.1%
same,Antitumor effect (%),"[3]; FIG. 6, Oral, 30 mg/kg",35.6%
same,Antitumor effect (%),"[3]; FIG. 7, Oral, 5 mg/kg",15.9%
same,effect on clinical score,"[4]; CIA mice model, FIG. 15",absent
same,"Pathological score (Mean ± SEM), Total","[4]; CIA study, 3 alone, 1.5 mg/kg QD",3.90 ± 1.80
same,"Pathological score (Mean ± SEM), Bone resorption",[4]; [5],0.60 ± 0.13
same,"Pathological score (Mean ± SEM), Cartilage injury",[4]; [5],0.80 ± 0.47
same,"Pathological score (Mean ± SEM), Inflammatory cell infiltration",[4]; [5],1.00 ± 0.47
same,"Pathological score (Mean ± SEM), Pannus growth",[4]; [5],0.80 ± 0.47
same,"Pathological score (Mean ± SEM), Bone resorption",[4]; [6],0.10 ± 0.10
same,"Pathological score (Mean ± SEM), Cartilage injury",[4]; [6],0.20 ± 0.20
same,"Pathological score (Mean ± SEM), Inflammatory cell infiltration",[4]; [6],0.20 ± 0.20
same,"Pathological score (Mean ± SEM), Pannus growth",[4]; [6],0.20 ± 0.20
same,Clinical Score (Mean),"[4]; CIA study, day 21, 3 alone, 1.5 mg/kg QD",0.00
same,Clinical Score (Mean),"[4]; CIA study, day 32, 3 alone, 1.5 mg/kg QD",2.60
same,Clinical Score (Mean),"[4]; CIA study, day 39, 3 alone, 1.5 mg/kg QD",4.20***
same,Clinical Score (Mean),"[4]; CIA study, day 42, 3 alone, 1.5 mg/kg QD",4.00***
same,inhibition at 0.01 µM,"TMD-8 cell line; Homo sapiens, TMD8, 48 h, 0.01 uM (10 nM), read-out: Inh % on TMD-8 cell line (AVG)",46.1%
same,inhibition at 0.1 µM,"TMD-8 cell line; Homo sapiens, TMD8, 48 h, 0.1 uM (100 nM), read-out: Inh % on TMD-8 cell line (AVG)",59.6%
same,inhibition at 1 µM,"TMD-8 cell line; Homo sapiens, TMD8, 48 h, 1 uM (1,000 nM), read-out: Inh % on TMD-8 cell line (AVG)",61.7%
same,inhibition at 10 µM,"TMD-8 cell line; Homo sapiens, TMD8, 48 h, 10 uM, read-out: Inh % on TMD-8 cell line (AVG)",74.9%
same,inhibition at 100 µM,"TMD-8 cell line; Homo sapiens, TMD8, 48 h, 100 uM, read-out: Inh % on TMD-8 cell line (AVG)",99.7%
same,Inh % on TMD-8 cell line (AVG),TMD-8 cell line; 0.01 uM (10 nM),51.66%
same,Inh % on TMD-8 cell line (AVG),TMD-8 cell line; 0.1 uM (100 nM),52.40%
same,Inh % on TMD-8 cell line (AVG),"TMD-8 cell line; 1 uM (1,000 nM)",55.05%
same,inhibition at 0.01 µM,DoHH-2 cell line; 0.01 uM,15.6%
same,inhibition at 0.1 µM,DoHH-2 cell line; 0.1 uM,34.8%
same,inhibition at 1 µM,DoHH-2 cell line; 1 uM,49.9%
same,Antitumor effect (%),"TMD-8 lymphoma xenograft; FIG. 2, 14 days, 10 mg/kg",63%
same,Antitumor effect (%),"TMD-8 lymphoma xenograft; FIG. 2, 14 days, 30 mg/kg",89%
same,Antitumor effect (%),"TMD-8 lymphoma xenograft; FIG. 3, 21 days, 5 mg/kg",90%
same,Antitumor effect (%),"TMD-8 lymphoma xenograft; FIG. 3, 21 days, 10 mg/kg",96%
same,Antitumor effect (%),"TMD-8 lymphoma xenograft; FIG. 4, 21 days, 10 mg/kg",77%
same,Antitumor effect (%),"TMD-8 lymphoma xenograft; FIG. 12, 14 days, 5 mg/kg",75%
same,Antitumor effect (%),"WSU-DLCL2 xenograft; FIG. 8, 28 days, 10 mg/kg",22%
same,Antitumor effect (%),"WSU-DLCL2 xenograft; FIG. 8, 28 days, 30 mg/kg",30%
same,Antitumor effect (%),"WSU-DLCL2 xenograft; FIG. 8, 28 days, 45 mg/kg",32%
same,Antitumor effect (%),"WSU-DLCL2 xenograft; FIG. 9, 18 days, 5 mg/kg",4%
same,Antitumor effect (%),"WSU-DLCL2 xenograft; FIG. 9, 18 days, 10 mg/kg",7%
same,Antitumor effect (%),"WSU-DLCL2 xenograft; FIG. 9, 18 days, 30 mg/kg",23%
same,efficacy / tumor growth,"WSU-DLCL2 xenograft; WSU-DLCL2 mice model, FIGS. 8 and 9, triple combination at total 21 mg/kg/day",in line with the efficacy of Ibrutinib
